According to patent US20070128217A1 (priority 2003, published 2007):

Tests used:
[1] = tested on: recombinant human anti-SARS-CoV antibody 03-018; format: binding; parameters: Binding of antibody 03-018 to linear peptides of the N protein of SARS-CoV Urbani / Binding of antibody 03-018 to looped/cyclic peptides of the N protein of SARS-CoV Urbani: unit not given here
[2] = tested on: control sera (pooled serum of ten healthy LUMC hospital workers; commercial negative donor pooled serum from the Dutch bloodbank); format: binding, human; parameters: Binding of Control serum LUMC to linear peptides / Binding of Control serum Blood-bank to linear peptides / Binding of Control serum LUMC to looped peptides / Binding of Control Serum Blood-Bank to Looped peptides / Binding of Control serum LUMC to linear peptides of the protein M of SARS-CoV Urbani / Binding of Control serum Blood-bank to linear peptides of the protein M of SARS-CoV Urbani / Binding of Control serum LUMC to looped peptides of the protein M of SARS-CoV Urbani / Binding of Control Serum Blood-Bank to Looped peptides of the protein M of SARS-CoV Urbani: unit not given here
[3] = tested on: rabbit serum obtained by immunizing a rabbit with the SARS-CoV strain Frankfurt 1; format: binding; parameters: Binding of a rabbit serum to linear peptides / Binding of a rabbit serum to looped peptides / Rabbit serum linear peptides / Rabbit serum looped peptides / Binding of a rabbit serum to linear peptides of protein N of SARS-CoV Urbani (Rabbit serum linear peptides) / Binding of a rabbit serum to looped/cyclic peptides of protein N of SARS-CoV Urbani (Rabbit serum looped peptides): unit not given here
[4] = tested on: antibodies in sera from SARS patients (sera 1a, 1b, 2, 6, 37, 62, London, SARS-yellow, SARS-green); format: binding, human; parameters: Binding of serum 6 to linear peptides of protein X1 of SARS-CoV Urbani / Binding of serum 37 to linear peptides of protein X1 of SARS-CoV Urbani / Binding of serum 6 to looped/cyclic peptide (PEPSCAN-ELISA) / Binding of serum 37 to looped/cyclic peptide (PEPSCAN-ELISA) / Binding of serum 37 to looped/cyclic peptides of protein X1 of SARS-CoV Urbani / Binding of serum 6 to linear peptides of protein X2 / Binding of serum 37 to linear peptides of protein X2 / Binding of serum 37 to looped/cyclic peptides of protein X2 of SARS-CoV Urbani / Binding of serum 6 to linear peptides of protein M of SARS-CoV Urbani / Binding of serum 37 to linear peptides of protein M of SARS-CoV Urbani / Binding of serum 6 to looped/cyclic peptides of protein M of SARS-CoV Urbani / Binding of serum 37 to looped/cyclic peptides of protein M of SARS-CoV Urbani / Binding of serum 6 to linear peptides of protein X3 of SARS-CoV Urbani / Binding of serum 37 to linear peptides of protein X3 of SARS-CoV Urbani / Binding of serum 37 to looped/cyclic peptides of protein X3 of SARS-CoV Urbani / Binding of serum 6 to linear peptides of protein X4 of SARS-CoV Urbani / Binding of serum 37 to linear peptides of protein X4 of SARS-CoV Urbani / Binding of serum 37 to looped/cyclic peptides of protein X4 of SARS-CoV Urbani / Binding of serum 6 to linear peptides of protein X5 of SARS-CoV Urbani / Binding of serum 37 to linear peptides of protein X5 of SARS-CoV Urbani / Binding of serum 37 to looped/cyclic peptides of protein X5 of SARS-CoV Urbani / Binding of serum 6 to linear peptides of protein N of SARS-CoV Urbani / Binding of serum 37 to linear peptides of protein N of SARS-CoV Urbani / Binding of serum 6 to linear peptide (PEPSCAN-ELISA) / Binding of serum 1a to looped/cyclic peptides of protein N of SARS-CoV Urbani / Binding of serum 1b to looped/cyclic peptides of protein N of SARS-CoV Urbani / Binding of serum 2 to looped/cyclic peptides of protein N of SARS-CoV Urbani / Binding of serum 6 to looped/cyclic peptides of protein N of SARS-CoV Urbani / Binding of serum 37 to looped/cyclic peptides of protein N of SARS-CoV Urbani / Binding of serum 62 to looped/cyclic peptides of protein N of SARS-CoV Urbani / Binding of serum London to looped/cyclic peptides of protein N of SARS-CoV Urbani / Binding of serum SARS-green to looped/cyclic peptides of protein N of SARS-CoV Urbani: unit not given here

Sequence	Binding of antibody 03-018 to linear peptides of the N protein of SARS-CoV Urbani [1]	Binding of antibody 03-018 to looped/cyclic peptides of the N protein of SARS-CoV Urbani [1]	Binding of a rabbit serum to linear peptides of protein N of SARS-CoV Urbani (Rabbit serum linear peptides) [3]	Binding of a rabbit serum to looped/cyclic peptides of protein N of SARS-CoV Urbani (Rabbit serum looped peptides) [3]	Binding of serum 1a to linear peptides of protein N of SARS-CoV Urbani [4]	Binding of serum 1a to looped/cyclic peptides of protein N of SARS-CoV Urbani [4]	Binding of serum 1b to linear peptides of protein N of SARS-CoV Urbani [4]	Binding of serum 1b to looped/cyclic peptides of protein N of SARS-CoV Urbani [4]	Binding of serum 2 to linear peptides of protein N of SARS-CoV Urbani [4]	Binding of serum 2 to looped/cyclic peptides of protein N of SARS-CoV Urbani [4]	Binding of serum 6 to linear peptides of protein N of SARS-CoV Urbani [4]	Binding of serum 6 to looped/cyclic peptides of protein N of SARS-CoV Urbani [4]	Binding of serum 37 to linear peptides of protein N of SARS-CoV Urbani [4]	Binding of serum 37 to looped/cyclic peptides of protein N of SARS-CoV Urbani [4]	Binding of serum 62 to linear peptides of protein N of SARS-CoV Urbani [4]	Binding of serum 62 to looped/cyclic peptides of protein N of SARS-CoV Urbani [4]	Binding of serum London to linear peptides of protein N of SARS-CoV Urbani [4]	Binding of serum London to looped/cyclic peptides of protein N of SARS-CoV Urbani [4]	Binding of serum SARS-green to looped/cyclic peptides of protein N of SARS-CoV Urbani [4]	Binding of serum SARS-yellow to looped/cyclic peptides of protein N of SARS-CoV Urbani [4]	other results
QPTVTLLPAADMDDF	0.1	0.2	0.1	0.0	0.3	0.3	0.2	0.2	0.2	0.2	0.2	0.1	1.1	0.5	0.7	0.3	0.5	0.2	0.4	0.4	Control Serum Blood-Bank Looped peptides [2]: 0.5; Control serum Blood-bank linear peptides [2]: 0.7; Control serum LUMC linear peptides [2]: 0.5; Control serum LUMC looped peptides [2]: 0.5; Binding of serum SARS-green to linear peptides of protein N of SARS-CoV Urbani [4]: 1.9; Binding of serum SARS-yellow to linear peptides of protein N of SARS-CoV Urbani [4]: 0.7
TVTKKSAAEASKKPR	0.1	0.2	0.2	0.5		0.2		0.1		0.2		0.1		0.5		0.3		0.3	0.0	0.2	Binding of Control Serum Blood-Bank to Looped peptides [2]: 0.4; Binding of Control serum Blood-bank to linear peptides [2]: 1.0; Binding of Control serum LUMC to linear peptides [2]: 1.0; Binding of Control serum LUMC to looped peptides [2]: 0.3; Recognition of the peptide by sera of SARS-CoV infected individuals, and form (linear, looped/cyclic) in which it is recognized [4]: recognized in linear form
TRNPNNNAATVLQLP	0.1	0.2	0.1	0.5	0.3	0.4	0.1	0.3	0.3	0.7	0.2	0.3	0.6	0.6	0.7	0.5	0.5	0.5	0.8	0.5	Binding of Control Serum Blood-Bank to Looped peptides [2]: 0.8; Binding of Control serum Blood-bank to linear peptides [2]: 0.7; Binding of Control serum LUMC to linear peptides [2]: 0.8; Binding of Control serum LUMC to looped peptides [2]: 0.7; Binding of serum SARS-green to linear peptides of protein N of SARS-CoV Urbani [4]: 0.3; Binding of serum SARS-yellow to linear peptides of protein N of SARS-CoV Urbani [4]: 0.7
